Data from US11058690B2, “Use of cytochrome bc1 complex inhibitor in preparing pharmaceutical composition” (BEIJING WEILANZHIYUAN MEDICAL TECHNOLOGY CO., LTD., priority 2017, dated 2021).

Tests used:
[1] = system: SD rats; assay: carrageenan-induced rat paw swelling test; type: in vivo
Protocol: Eighteen healthy adult male mice were randomly divided into 3 groups. FAPM (100 mg/kg) was administered intraperitoneally once a day for 3 consecutive days. The control group was injected with the same amount of solvent, and the positive drug dexamethasone (4 mg/kg) was administered intragastrically once a day for 3 consecutive days. Thirty minutes after the last administration, 0.1 mL of 1% carrageenan was injected subcutaneously into the right hind paw of each rat, and the plantar thickness was measured before injection and 1, 2 and 3 hours after injection. Three hours later, the rats were sacrificed by dislocation. The feet were cut off from the knee joints and weighed on a precision balance. The swelling degree of the paw (right foot weight-left foot weight) was calculated.

[2] = system: MLC20; assay: phosphorylation of MLC20 in rat uterine smooth muscle cells induced by PGF2α (Western blotting); type: cell-based; details: 5 μM and 10 μM pretreatment; PGF2α stimulation 5 minutes
Description: A tissue mass culture method was adopted: rats treated with diethylstilbestrol were sacrificed through dislocation and soak in 75% alcohol for disinfection, open the abdominal cavity under an aseptic condition, separate the uterus, transfer it to a plate, cut open the uterus to remove the outer membrane of the uterus, gently scrape off the inner membrane of the uterus with a blade, gently peel off the outer membrane of the uterus with a tweezer, cut the intact smooth muscle into small pieces of less than 1×1×1 mm^3, uniformly stick them to the wall of a culture bottle, add a culture solution with the bottom up, gently turn over after culture at 5% CO2 and 37° C. for 3-4 hours, and soak in an RPMI-1640 culture solution (containing 20% calf bovine serum) for about one week until the cells can be connected into pieces to form monolayer cultured cells. At this time, the culture solution in the bottle was poured out, the tissue masses in the bottle were washed twice with PBS and removed, and a proper amount of 0.25% trypsin was added. Calf bovine serum was added to stop the reaction when most cells contracted and became round under microscope, the liquid was poured out, and the cells were washed twice with PBS and added with a proper amount of RPMI-1640, and the eluted cells were gently washed with a pipette to prepare a cell suspension for later use. […]

CO/C=C(/C(=O)OC)c1ccccc1COc1cc(C(F)(F)F)nc(OC(C)C)n1 [FAPM, fluacrypyrim]
Paw swelling thickness 1 h ([1]; 100 mg/Kg intraperitoneal once a day for 3 days, 1 h after carrageenan): 5.72 ± 0.29 mm
Paw swelling thickness 2 h ([1]; 100 mg/Kg intraperitoneal once a day for 3 days, 2 h after carrageenan): 5.92 ± 0.19 mm
Paw swelling thickness 3 h ([1]; 100 mg/Kg intraperitoneal once a day for 3 days, 3 h after carrageenan): 6.24 ± 0.20 mm
Paw swelling (right foot weight-left foot weight) ([1]; 100 mg/Kg intraperitoneal once a day for 3 days, 3 hours after carrageenan): 0.834 ± 0.32 g
carrageenan-induced rat paw swelling ([1]; 100 mg/kg intraperitoneal): significantly inhibited
phosphorylation of MLC20 (gray analysis, words) [2]: significantly inhibited
